Measurements reported in patent publication US8946142B2, “Beta-arrestin effectors and compositions and methods of use thereof” (Trevena, Inc., priority 2012, dated 2015).
Where a SMILES comes first, the peptide text is derived from it. [ ]: non-standard residue; d: D form. Ac6c = NC1(C(=O)O)CCCCC1; Ac5c = NC1(C(=O)O)CCCC1; Sar = CNCC(=O)O

Columns and labels:
Type in all cases: cell-based
[1] = target: T1, human AT1R (Homo sapiens, UniProt P30556); test: IP1 accumulation assay (IP1 G-protein assay), human AT1R; settings: for Emax: read-out: Span (relative to hAngII)
T1 sequence (P30556 1-359): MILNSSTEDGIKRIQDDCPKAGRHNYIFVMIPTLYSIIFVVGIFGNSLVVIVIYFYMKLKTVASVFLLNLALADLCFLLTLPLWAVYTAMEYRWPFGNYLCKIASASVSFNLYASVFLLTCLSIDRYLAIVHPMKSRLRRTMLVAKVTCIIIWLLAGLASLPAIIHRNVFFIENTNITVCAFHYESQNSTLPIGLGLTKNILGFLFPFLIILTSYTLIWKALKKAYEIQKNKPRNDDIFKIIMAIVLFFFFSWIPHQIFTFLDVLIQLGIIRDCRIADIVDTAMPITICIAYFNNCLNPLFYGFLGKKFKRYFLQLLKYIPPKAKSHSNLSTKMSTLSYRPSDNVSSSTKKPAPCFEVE

[2] = target: T2, rat AT1aR (Rattus norvegicus, UniProt P25095); test: IP1 accumulation assay (IP1 G-protein assay), rat AT1aR; settings: for Emax: read-out: Span (relative to hAngII)
T2 sequence (P25095 1-359): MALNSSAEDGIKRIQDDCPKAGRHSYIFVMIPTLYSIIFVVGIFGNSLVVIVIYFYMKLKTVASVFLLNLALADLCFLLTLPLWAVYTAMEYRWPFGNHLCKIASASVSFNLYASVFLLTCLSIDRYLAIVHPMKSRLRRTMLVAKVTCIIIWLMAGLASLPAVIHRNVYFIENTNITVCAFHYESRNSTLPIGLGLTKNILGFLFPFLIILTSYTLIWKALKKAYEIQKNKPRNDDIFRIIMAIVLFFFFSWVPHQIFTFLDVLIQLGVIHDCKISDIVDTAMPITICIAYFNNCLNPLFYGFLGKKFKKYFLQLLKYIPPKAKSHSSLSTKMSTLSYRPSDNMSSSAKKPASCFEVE

[3] = target: T1, human AT1R; test: beta-arrestin2 recruitment assay (PathHunter), human AT1R; settings: for Emax: 1 h, read-out: Span (relative to hAngII)
Procedure, shortened: (§1)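 PathHunter enzyme-complementation assay in HEK293 cells stably expressing ProLink-tagged human AT1R or rat AT1aR; peptides (final 100 μM–1 pM) in HBSS/20 mM HEPES for 60 min at 37 °C. Detection reagent 60 min at room temperature; β-arrestin-2 recruitment read as relative luminescence.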

[4] = target: T2, rat AT1aR; test: beta-arrestin2 recruitment assay (PathHunter), rat AT1aR; settings: for Emax: 1 h, read-out: Span (relative to hAngII)
Procedure, shortened: as §1

CNCC(=O)N[C@@H](CCCNC(=N)N)C(=O)N[C@H](C(=O)N[C@@H](Cc1ccc(O)cc1)C(=O)N1CCC[C@H]1C(=O)N[C@@H](Cc1c[nH]cn1)C(=O)N1CCC[C@H]1C(=O)N[C@@H](C)C(=O)O)C(C)C [SEQ ID NO: 1, Sar-Arg-Val-Tyr-Pro-His-Pro-Ala] (H-[Sar]RVYPHPA-OH)
EC50 ([1]; read-out: EC50): > 10000 nM | EC50 ([1]; read-out: pEC50 (converted)): > 0.631 nM | EC50 ([2]; read-out: EC50): > 0.6 nM | Emax [2]: < 104% | EC50 ([2]; read-out: pEC50 (converted)): > 0.631 nM | Emax [3]: < 101% | EC50 ([3]; read-out: EC50): > 3.2 nM | EC50 ([3]; read-out: pEC50 (converted)): > 3.16 nM | Emax [4]: < 105% | EC50 ([4]; read-out: EC50): > 3.2 nM | EC50 ([4]; read-out: pEC50 (converted)): > 3.16 nM

CNCC(=O)N[C@@H](CCCNC(=N)N)C(=O)N[C@H](C(=O)N[C@@H](Cc1ccc(O)cc1)C(=O)NC1(C(=O)N[C@@H](Cc2c[nH]cn2)C(=O)N2CCC[C@H]2C(=O)N[C@@H](CCSC)C(=O)O)CCCC1)C(C)C [SEQ ID NO: 23, Sar-Arg-Val-Tyr-cyPen-His-Pro-Met] (H-[Sar]RVY[Ac5c]HPM-OH)
EC50 ([1]; read-out: EC50): > 1.3 nM | Emax [1]: < 103% | EC50 ([1]; read-out: pEC50 (converted)): > 0.631 nM | EC50 ([2]; read-out: EC50): > 0.6 nM | Emax [2]: < 104% | EC50 ([2]; read-out: pEC50 (converted)): > 0.631 nM | Emax [3]: < 101% | EC50 ([3]; read-out: EC50): > 3.2 nM | EC50 ([3]; read-out: pEC50 (converted)): > 3.16 nM | Emax [4]: < 105% | EC50 ([4]; read-out: EC50): > 3.2 nM | EC50 ([4]; read-out: pEC50 (converted)): > 3.16 nM

CNCC(=O)N[C@@H](CCCNC(=N)N)C(=O)N[C@H](C(=O)N[C@@H](Cc1ccc(O)cc1)C(=O)N1CCC[C@H]1C(=O)N[C@@H](Cc1c[nH]cn1)C(=O)N1CCC[C@H]1C(=O)N[C@@H](Cc1ccccc1)C(=O)O)C(C)C [SEQ ID NO: 10, Sar-Arg-Val-Tyr-Pro-His-Pro-Phe] (H-[Sar]RVYPHPF-OH; N-terminus and C-terminus assumed)
Emax [1]: < 103% | Emax [2]: < 104% | Emax [3]: < 101% | Emax [4]: > 105%

CC[C@H](C)[C@@H](C(=O)N[C@@H](Cc1c[nH]cn1)C(=O)N1CCC[C@H]1C(=O)N[C@@H](C)C(=O)O)N(C)C(=O)[C@H](Cc1ccc(O)cc1)NC(=O)[C@@H](NC(=O)[C@H](CCCNC(=N)N)NC(=O)CNC)C(C)C [SEQ ID NO: 58, Sar-Arg-Val-Tyr-NMeIle-His-Pro-Ala]
EC50 (nM) [1]: Inactive | pEC50 [1]: Inactive | EC50 ([2]; read-out: EC50): > 0.6 nM | Emax [2]: < 104% | EC50 ([2]; read-out: pEC50 (converted)): > 0.631 nM | Emax [3]: < 101% | EC50 ([3]; read-out: EC50): > 3.2 nM | EC50 ([3]; read-out: pEC50 (converted)): > 3.16 nM | Emax [4]: < 105% | EC50 ([4]; read-out: EC50): > 3.2 nM | EC50 ([4]; read-out: pEC50 (converted)): > 3.16 nM

CNCC(=O)N[C@@H](CCCNC(=N)N)C(=O)N[C@H](C(=O)N[C@@H](Cc1ccc(O)cc1)C(=O)N1CCC[C@H]1C(=O)N[C@@H](Cc1c[nH]cn1)C(=O)N1CCC[C@H]1C(=O)N[C@@H](CC(C)C)C(=O)O)C(C)C [SEQ ID NO: 5, Sar-Arg-Val-Tyr-Pro-His-Pro-Leu] (H-[Sar]RVYPHPL-OH; N-terminus and C-terminus assumed)
Emax [1]: < 103% | Emax [2]: < 104% | Emax [3]: < 101% | Emax [4]: < 105%

CNCC(=O)N[C@@H](CCCNC(=N)N)C(=O)N[C@H](C(=O)N[C@@H](Cc1ccc(O)cc1)C(=O)NC1(C(=O)N[C@@H](Cc2c[nH]cn2)C(=O)N2CCC[C@H]2C(=O)N[C@H](C(=O)O)C(C)C)CCCCC1)C(C)C [SEQ ID NO: 13, Sar-Arg-Val-Tyr-cyHex-His-Pro-Val] (H-[Sar]RVY[Ac6c]HPV-OH)
EC50 ([1]; read-out: EC50): > 1.3 nM | EC50 ([1]; read-out: pEC50 (converted)): > 0.631 nM | EC50 ([2]; read-out: EC50): > 0.6 nM | EC50 ([2]; read-out: pEC50 (converted)): > 0.631 nM | Emax [3]: 103% | EC50 ([3]; read-out: EC50): > 3.2 nM | EC50 ([3]; read-out: pEC50 (converted)): > 3.16 nM | Emax [4]: < 105% | EC50 ([4]; read-out: EC50): > 3.2 nM | EC50 ([4]; read-out: pEC50 (converted)): > 3.16 nM

CNCC(=O)N[C@@H](CCCNC(=N)N)C(=O)N[C@H](C(=O)N[C@@H](Cc1ccc(O)cc1)C(=O)NC1(C(=O)N[C@@H](Cc2c[nH]cn2)C(=O)N2CCC[C@H]2C(=O)N[C@@H](CCC(N)=O)C(=O)O)CCCCC1)C(C)C [SEQ ID NO: 38, Sar-Arg-Val-Tyr-cyHex-His-Pro-Gln] (H-[Sar]RVY[Ac6c]HPQ-OH)
EC50 ([1]; read-out: EC50): > 1.3 nM | Emax [1]: < 103% | EC50 ([1]; read-out: pEC50 (converted)): > 0.631 nM | EC50 ([2]; read-out: EC50): > 0.6 nM | Emax [2]: < 104% | EC50 ([2]; read-out: pEC50 (converted)): > 0.631 nM | Emax [3]: < 101% | EC50 ([3]; read-out: EC50): > 3.2 nM | EC50 ([3]; read-out: pEC50 (converted)): > 3.16 nM | Emax [4]: < 105% | EC50 ([4]; read-out: EC50): > 3.2 nM | EC50 ([4]; read-out: pEC50 (converted)): > 3.16 nM
